Test results as given in patent US10912767B2, “Anthracycline prodrugs and methods of making and using the same” (THE REGENTS OF THE UNIVERSITY OF COLORADO, priority 2015, dated 2021).
Where two headings read alike, the source gives them in different places. Non-standard residues stand in square brackets, D forms with d. Residues, ends and D or L forms follow the SMILES beside them. *: point of attachment. X1 = COc1cc(C(C)OC(=O)N2CO[C@@H]3[C@H](C)OC(OC4CC(O)(C(=O)CO)Cc5c(O)c6c(c(O)c54)C(=O)c4c(OC)cccc4C6=O)C[C@@H]32)c([N+](=O)[O-])cc1OCC(=O)NCCOCCOCCOCCn1nnc2c1-c1ccccc1CN(C(=O)CCNC(=O)CCN1C(=O)CC(*)C1=O)c1ccccc1-2; Mpa = O=C(O)CCS

Experiments:
[1] = tested on: MDA-MB-231 breast cancer cells; assay: Tumor cell growth inhibition, crystal violet (Example 2); assay type: cell-based, human; details: Homo sapiens, read-out: IC50
Description: (§1) In order to investigate the photolysis of the drugs in a system amenable to cell culture use, a custom UV irradiation apparatus was constructed, consisting of 3 small blacklight fluorescent bulbs (Southern New England Ultraviolet Co., λmax=350 nm) set between two ring stands and suspended at a height of 11.5 cm. The bulbs' housing was reflective aluminum so as to direct as much UV irradiation as possible downward toward the plate. Upon installation in sterile cell culture hood, the power of the system was measured at approximately 6-7 mW using a Scientech laser power meter. Prior to experimentation, the hood and irradiation apparatus was sterilized with 254 nm germicidal UV irradiation overnight. Using this setup, 100 μM of 4,5-dimethoxy-2-nitrobenyl alcohol (DMNA), photodoxazolidine R═H, and glucose-PEG-photodoxazoldine were irradiated in individual wells of a 24-well plate. Initially, 50 μL of a DMSO stock was diluted with 950 μL of PBS and aliquots of 50 μL were removed at various times (0-180 min), mixing by pipetting each time. The timepoints were analyzed by HPLC (method 2) and plotted as fractional conversion versus time. […] Therefore, a second experiment was performed in which the PBS was replaced with 1:1 acetonitrile:water. With this system of 5% DMSO/47.5% acetonitrile/47.5% water, no visible precipitation was produced over the course of the reaction.
The ovarian carcinoma line NCl/ADR-RES (ADR) was grown in high-glucose Dulbecco's Modified Eagle Medium (DMEM) supplemented with 10% fetal bovine serum (FBS), 200 units/mL of penicillin and 200 μg/mL of streptomycin. The breast carcinoma line MDA-MB-231 was cultured in low-glucose DMEM with the same additives. Both lines were maintained in a humidified incubator with 5% CO2/95% air at 37° C. UV irradiations were performed with the apparatus described above.
Growth inhibition experiments were performed by seeding cells into 96-well plates or 24-well plates at densities of 1000-1500 cells per well or 8000 cells per well, respectively, and allowing the cells to adhere overnight. The media was then replaced with a range of aqueous concentrations of the drug in question and allowed to incubate at 37° C. with the cells for a span of time (Inc1) which ranged from 1 min to 48 hours. Irradiation was performed at room temperature with the plate's lid removed and ranged from 1 to 30 min. In some experiments, the drug solution was removed following Inc1 and irradiated in clean media or PBS. Following irradiation, the cells were placed back into the 37° C. incubator for a second period of incubation (Inc2), which varied between 1 min and 24 h, prior to replacement with fresh media. Plates which received no irradiation but identical treatment otherwise were done in parallel. The cells were then grown until the no-drug control wells reached approximately 80% confluence or 5 days, whichever was shorter. […] The cells were fixed with 5% formalin in PBS, stained with crystal violet, washed with tap water, and air-dried. The stain was resolubilized in 50% isopropyl alcohol, 50% H2O containing 2% (w/v) SDS. The staining density was read on a multiwell plate reader at 588-600 nm. Percentage cell density was calculated relative to the irradiated no-drug control wells, plotted as a function of drug concentration, and fit using non-linear least squared analysis with a variable-slope dose response model in GraphPad Prism 5.0 software.
Although the introduction of a long-pass glass filter between the light source and the plate alleviated this effect to a small extent, a maximum irradiation time of 10 min was settled upon. […] Since a media change at that point would remove the cells as well, the re-adherence of the cell population was accomplished by the addition of a large volume (200 μL) of complete media following Inc2, and overnight incubation. Then, a full media change was done to remove the drug. […]

[2] = tested on: MDA-MB-231 human breast cancer cells; assay: cells; assay type: cell-based
Method: The breast carcinoma line MDA-MB-231 was cultured in Minimum Essential Media (MEM) supplemented with 10% of fetal bovine serum (FBS), 100 units/mL of penicillin and 100 μg/mL of streptomycin, and 1 mM of sodium pyruvate. The cells were incubated at 37° C. in an atmosphere of 95% air and 5% CO2.
The cells were seeded to 96-well plates at a density of 1000 cells/well and allowed to adhere overnight. The prodrugs with various concentrations in MEM were added and the cells were incubated at 37° C. for 24 h. After the media was removed, the cells were washed with PBS two times. The cells in PBS (50 μL) were irradiated for 15 min, followed by incubating at room temperature for 30 min. The PBS was replaced with fresh media and the cells were grown until the no-drug control reached 80% confluency, or 5 days. Cell density was measured by crystal violet staining.
The membrane permeability of the photoactivated prodrugs and their cellular uptake by MDA-MB-231 human breast cancer cells were each monitored by fluorescence microscopy. After the cells were grown with the prodrugs for 24 h, they were washed with PBS two times to remove the prodrugs that remained outside of the cells. The cellular uptake of 10 μM glucose-photodoxazolidine and glucose-PEG-photodoxazolidine was monitored with the fluorescence of the anthraquinone fluorophore. The prodrugs were then activated inside of the cells by black lamp UV irradiation (maximum intensity at 350 nm) for 15 min. […] This drastic change of cytotoxicity presumably arises from membrane permeability of MARCKS-ED peptide and possibly some phototoxicity from longer irradiation time.

[3] = Photolysis timecourses, near UV blacklight 350 nm, HPLC; assay type: physicochemical; details: for k in ACN: H2O, relative rate constant for photocleavage / k in PBS, relative rate constant for photocleavage: 100 μM, near UV 350 nm; for k in ACN: H2O, relative rate constant for photocleavage / k in ACN: H2O, fold over photodoxazolidine: 1:1 acetonitrile:water; for photochemical reaction, fold faster than photodoxazolidine: both solvents
Description: as §1
The measured quantum yield of 0.002 for photodoxazolidine R═H (above) was lower than expected, which raised the possibility that the presence of the anthraquinone ring complex in the prodrugs was inhibiting photocleavage by quenching the activated state. To test whether this, the irradiation kinetics of DMNA (4, 5-dimethoxy-2-nitrobenzyl alcohol) was compared against photodoxazolidine R═H, which contains the DMNA unit as the photoactivating group. Additionally, glucose-PEG-photodoxazoldine was included for comparison; a synthetic precursor to this compound, azido-PEG-photodoxazolidine, is suspected of having a quantum yield of 0.01-0.02, which is 5-10-fold larger than photodoxazolidine. Irradiation was performed in 24-well cell culture dishes using the cell culture irradiation system described above with the soft-glass high-pass filter. […] In both cases, photodoxazolidine was the slowest to produce dox from the irradiation. In line with its quantum yield, glucose-PEG-photodoxazolidine reacted 4-5-fold faster than photodoxazolidine. However, DMNA was by far the fastest to undergo photochemistry in this system, converting to product approximately 30-fold faster than photodoxazolidine.

## COc1cc(C(C)OC(=O)N2COC3C(C)OC(OC4CC(O)(C(=O)CO)Cc5c(O)c6c(c(O)c54)C(=O)c4c(OC)cccc4C6=O)CC32)c([N+](=O)[O-])cc1OCC(=O)NCCOCCOCCOCCn1cc(CCC(=O)NC2C(O)OC(CO)C(O)C2O)nn1 (centres unmarked) [Glucose-PEG-photodoxazolidine]
[1]; 10 min, MDA-MB-231, +UV 10 min, near UV 350 nm
  IC50: 0.027 ± 0.002 µM
[1]; MDA-MB-231, prodrug alone, no UV
  IC50: > 10 µM
[2]; Homo sapiens, MDA-MB-231, light +, 24 h incubation, 15 min UV, read-out: IC50
  IC50: 0.75 µM
[2]; Homo sapiens, MDA-MB-231, light −, 24 h incubation, read-out: IC50
  IC50: 2.4 µM
[3]
  k in ACN: H2O, relative rate constant for photocleavage: 0.036 min⁻¹
  k in PBS, relative rate constant for photocleavage: 0.011 min⁻¹
  k in ACN: H2O, fold over photodoxazolidine: (5.2)
  k in PBS, fold over photodoxazolidine: (4.2)
  photochemical reaction, fold faster than photodoxazolidine: 4-5 fold

## COc1cc(CO)c([N+](=O)[O-])cc1OC [DMNA, 4,5-dimethoxy-2-nitrobenzylalcohol, reference compound]
[3]
  k in ACN: H2O, relative rate constant for photocleavage: 0.21 min⁻¹
  k in PBS, relative rate constant for photocleavage: 0.081 min⁻¹
  k in ACN: H2O, fold over photodoxazolidine: (30)
  k in PBS, fold over photodoxazolidine: (31)
  photochemical reaction, fold faster than photodoxazolidine: approximately 30 fold

## COc1cc(C(C)OC(=O)N2COC3C(C)OC(OC4CC(O)(C(=O)CO)Cc5c(O)c6c(c(O)c54)C(=O)c4c(OC)cccc4C6=O)CC32)c([N+](=O)[O-])cc1OCC(=O)NC1C(O)OC(CO)C(O)C1O (centres unmarked) [Glucose-Phtodoxazolidine]
[2]; Homo sapiens, MDA-MB-231
  IC50: 0.832 µM
[2]; Homo sapiens, MDA-MB-231, 24 h
  IC50: 2.08 µM

## COc1cc(C(C)OC(=O)N2CO[C@@H]3[C@H](C)OC(OC4CC(O)(C(=O)CO)Cc5c(O)c6c(c(O)c54)C(=O)c4c(OC)cccc4C6=O)C[C@@H]32)c([N+](=O)[O-])cc1OCC(=O)NCCOCCOCCOCCn1nnc2c1-c1ccccc1CN(C(=O)CCNC(=O)CCN1C(=O)CC(SCCC(=O)N[C@@H](CCCCN)C(=O)N[C@@H](CCCCN)C(=O)N[C@@H](CCCCN)C(=O)N[C@@H](CCCCN)C(=O)N[C@@H](CCCCN)C(=O)N[C@@H](CCCNC(=N)N)C(=O)N[C@@H](Cc3ccccc3)C(=O)N[C@@H](CO)C(=O)N[C@@H](Cc3ccccc3)C(=O)N[C@@H](CCCCN)C(=O)N[C@@H](CCCCN)C(=O)N[C@@H](CO)C(=O)N[C@@H](Cc3ccccc3)C(=O)N[C@@H](CCCCN)C(=O)N[C@@H](CC(C)C)C(=O)N[C@@H](CO)C(=O)NCC(=O)N[C@@H](Cc3ccccc3)C(=O)N[C@@H](CO)C(=O)N[C@@H](Cc3ccccc3)C(=O)N[C@@H](CCCCN)C(=O)N[C@@H](CCCCN)C(=O)N[C@@H](CC(N)=O)C(=O)N[C@@H](CCCCN)C(=O)N[C@@H](CCCCN)C(N)=O)C1=O)c1ccccc1-2 (some centres unmarked) [MARCKS-PEG-Photodoxazolidine] ([Mpa](X1)KKKKKRFSFKKSFKLSGFSFKKNKK-NH2)
[2]; light −, 24 h incubation, read-out: IC50
  IC50: 1.3 µM
